Experimental data as given in patent US7585859B2, “PDE4B inhibitors and uses therefor” (Plexxikon, Inc., priority 2004, dated 2009).

What was measured:
[1] = target: T1, PDE4B: The catalytic domain of human PDE4B from S152-S528 (Homo sapiens, UniProt Q07343); experiment: PDE4 IC50 determination by Scintillation Proximity Assay, PDE4B; assay type: biochemical; conditions: Table 1B, Formula I compounds; read-out: IC50 PDE4B
T1 construct: His6 (N); thrombin cleavage site (N); made in house; host or cells: E. coli
Method in brief: (§1)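 Radiometric SPA: PDE4B (80 ng/ml) or PDE4D (4 ng/ml) hydrolysed [^3H]cAMP over 30 min at 30°, and the bead-bound [^3H]AMP was scintillation-counted.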

PDE4D = target: T2, PDE4D (Homo sapiens, UniProt Q08499); experiment: PDE4 IC50 determination by Scintillation Proximity Assay, PDE4D; assay type: biochemical; conditions: Table 1B, Formula I compounds; read-out: IC50 PDE4D
T2 construct: PDE4D: The catalytic domain of human PDE4B from S3 16-V692; His6 (N); thrombin cleavage site (N); made in house; host or cells: E. coli
Method in brief: as §1

T2 sequence (Q08499 380-756): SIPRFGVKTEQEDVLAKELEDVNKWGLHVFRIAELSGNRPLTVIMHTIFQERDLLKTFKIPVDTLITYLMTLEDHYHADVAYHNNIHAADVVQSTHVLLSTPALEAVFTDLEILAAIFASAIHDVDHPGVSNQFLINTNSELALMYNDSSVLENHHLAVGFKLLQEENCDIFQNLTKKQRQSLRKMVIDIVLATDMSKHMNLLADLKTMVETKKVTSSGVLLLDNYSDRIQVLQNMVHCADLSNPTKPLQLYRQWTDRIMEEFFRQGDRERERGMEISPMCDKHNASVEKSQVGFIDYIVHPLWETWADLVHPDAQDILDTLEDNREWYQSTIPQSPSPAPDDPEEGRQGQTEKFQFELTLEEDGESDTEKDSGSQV
T1 sequence (Q07343 with tags, fused parts or gaps): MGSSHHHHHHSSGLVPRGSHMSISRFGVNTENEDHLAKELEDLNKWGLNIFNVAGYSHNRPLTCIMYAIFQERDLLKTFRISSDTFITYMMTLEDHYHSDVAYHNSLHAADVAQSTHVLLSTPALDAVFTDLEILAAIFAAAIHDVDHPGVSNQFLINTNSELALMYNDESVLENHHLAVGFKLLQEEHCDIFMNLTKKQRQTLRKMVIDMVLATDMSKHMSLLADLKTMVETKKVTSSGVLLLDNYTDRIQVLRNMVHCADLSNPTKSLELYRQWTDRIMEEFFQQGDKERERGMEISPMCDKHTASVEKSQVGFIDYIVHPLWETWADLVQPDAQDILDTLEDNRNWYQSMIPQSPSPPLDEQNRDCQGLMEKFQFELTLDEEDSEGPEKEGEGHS

COc1ccc(CNc2sc(C(=O)c3ccccn3)c(N)c2C#N)cc1OC [Compound 1-149, 4-Amino-2-(3,4-dimethoxy-benzylamino)-5-(pyridine-2-carbonyl)-thiophene-3-carbonitrile]
IC50 [1]: < 10 µM
IC50 (PDE4D): < 10 µM

N#Cc1c(Nc2ccc(Oc3ccccc3)cc2)sc(C(=O)c2ccccn2)c1N [Compound 1-150, 4-Amino-2-(4-phenoxy-phenylamino)-5-(pyridine-2-carbonyl)-thiophene-3-carbonitrile]
IC50 [1]: < 10 µM
IC50 (PDE4D): > 10 µM

N#Cc1c(Nc2ccc(C(=O)NC3CCOC3=O)cc2)sc(C(=O)c2ccccn2)c1N (centres unmarked) [Compound 1-151, 4-[4-Amino-3-cyano-5-(pyridine-2-carbonyl)-thiophen-2-ylamino]-N-(2-oxo-tetrahydro-furan-3-yl)-benzamide]
IC50 [1]: < 10 µM
IC50 (PDE4D): > 10 µM

N#Cc1c(NC2CCOC2=O)sc(C(=O)c2ccccn2)c1N (centres unmarked) [Compound 1-152, 4-Amino-2-(2-oxo-tetrahydro-furan-3-ylamino)-5-(pyridine-2-carbonyl)-thiophene-3-carbonitrile]
IC50 [1]: > 10 µM
IC50 (PDE4D): > 10 µM

CCc1ccccc1Nc1sc(C(=O)c2ccccn2)c(N)c1C#N [Compound 1-153, 4-Amino-2-(2-ethyl-phenylamino)-5-(pyridine-2-carbonyl)-thiophene-3-carbonitrile]
IC50 [1]: < 10 µM
IC50 (PDE4D): > 10 µM

COC(=O)C(CC(C)C)Nc1sc(C(=O)c2cc(OC)ccc2OC)c(N)c1C#N (centres unmarked) [Compound 1-154, 2-[4-Amino-3-cyano-5-(2,5-dimethoxy-benzoyl)-thiophen-2-ylamino]-4-methyl-pentanoic acid methyl ester]
IC50 [1]: < 10 µM
IC50 (PDE4D): > 10 µM

COC(=O)C(CCSC)Nc1sc(C(=O)c2cccc(Cl)c2)c(N)c1C#N (centres unmarked) [Compound 1-156]
IC50 [1]: < 10 µM
IC50 (PDE4D): < 10 µM

Cc1ccc(C(=O)c2sc(Nc3ccc4c(c3)CCC4)c(C#N)c2N)c(C)c1 [Compound 1-157, 4-Amino-5-(2,4-dimethyl-benzoyl)-2-(indan-5-ylamino)-thiophene-3-carbonitrile]
IC50 [1]: < 10 µM
IC50 (PDE4D): < 10 µM

Cc1ccc(C(=O)c2sc(Nc3ccc(Oc4ccccc4)cc3)c(C#N)c2N)c(C)c1 [Compound 1-158, 4-Amino-5-(2,4-dimethyl-benzoyl)-2-(4-phenoxy-phenylamino)-thiophene-3-carbonitrile]
IC50 [1]: < 10 µM
IC50 (PDE4D): > 10 µM

N#Cc1c(NC2CCOC2=O)sc(C(=O)c2csc3ccccc23)c1N (centres unmarked) [Compound 1-159, 4-Amino-5-(benzo[b]thiophene-3-carbonyl)-2-(2-oxo-tetrahydro-furan-3-ylamino)-thiophene-3-carbonitrile]
IC50 [1]: < 10 µM
IC50 (PDE4D): < 10 µM

Cc1ccccc1C(=O)Nc1sc(C(=O)c2ccccn2)c(N)c1C#N [Compound 1-160, N-[4-Amino-3-cyano-5-(pyridine-2-carbonyl)-thiophen-2-yl]-2-methyl-benzamide]
IC50 [1]: < 10 µM
IC50 (PDE4D): > 10 µM

COc1ccc(CNc2sc(C(=O)c3ccc(C)cc3C)c(N)c2C#N)cc1OC [Compound 1-162, 4-Amino-2-(3,4-dimethoxy-benzylamino)-5-(2,4-dimethyl-benzoyl)-thiophene-3-carbonitrile]
IC50 [1]: < 10 µM
IC50 (PDE4D): < 10 µM

N#Cc1c(Nc2ccc(Oc3ccccc3)cc2)sc(C(=O)c2cccc(Cl)c2)c1N [Compound 1-163, 4-Amino-5-(3-chloro-benzoyl)-2-(4-phenoxy-phenylamino)-thiophene-3-carbonitrile]
IC50 [1]: < 10 µM
IC50 (PDE4D): > 10 µM

N#Cc1c(Nc2ccc(OC(F)F)cc2)sc(C(=O)c2ccc(OC(F)F)cc2)c1N [Compound 1-165, 4-Amino-5-(4-difluoro-methoxy-benzoyl)-2-(4-difluoromethoxy-phenylamino)-thiophene-3-carbonitrile]
IC50 [1]: < 10 µM
IC50 (PDE4D): < 10 µM

N#Cc1c(Nc2ccc(Cl)c(C(F)(F)F)c2)sc(C(=O)c2ccccc2)c1N [Compound 1-168, 4-Amino-5-benzoyl-2-(4-chloro-3-trifluoromethyl-phenylamino)-thiophene-3-carbonitrile]
IC50 [1]: < 10 µM
IC50 (PDE4D): < 10 µM

N#Cc1c(Nc2cccc([N+](=O)[O-])c2)sc(C(=O)c2ccccc2)c1N [Compound 1-170, 4-Amino-5-benzoyl-2-(3-nitro-phenylamino)-thiophene-3-carbonitrile]
IC50 [1]: < 10 µM
IC50 (PDE4D): < 10 µM

CCOC(=O)c1cc(C(=O)c2sc(Nc3cccc(SC)c3)c(C#N)c2N)on1 [Compound 1-176, 5-[3-Amino-4-cyano-5-(3-methylsulfanyl-phenylamino)-thiophene-2-carbonyl]-isoxazole-3-carboxylic acid ethyl ester]
IC50 [1]: < 10 µM
IC50 (PDE4D): < 10 µM

COc1ccc(C(=O)c2sc(NC3CC3)c(C#N)c2N)cc1 [Compound 1-178, 4-Amino-2-cyclopropylamino-5-(4-methoxy-benzoyl)-thiophene-3-carbonitrile]
IC50 [1]: < 10 µM
IC50 (PDE4D): < 10 µM

N#Cc1c(NC2CCCC2)sc(C(=O)C2CC2)c1N [Compound 1-179, 4-Amino-2-cyclopentylamino-5-cyclopropanecarbonyl-thiophene-3-carbonitrile]
IC50 [1]: < 10 µM
IC50 (PDE4D): < 10 µM

N#Cc1c(NC2CCCC2)sc(C(=O)c2ccc(Cl)cc2)c1N [Compound 1-182, 4-Amino-5-(4-chloro-benzoyl)-2-cyclopentylamino-thiophene-3-carbonitrile]
IC50 [1]: < 10 µM
IC50 (PDE4D): > 10 µM

COc1ccc(C(=O)c2sc(NC3CCCC3)c(C#N)c2N)cc1 [Compound 1-183, 4-Amino-2-cyclopentylamino-5-(4-methoxy-benzoyl)-thiophene-3-carbonitrile]
IC50 [1]: < 10 µM
IC50 (PDE4D): < 10 µM

N#Cc1c(Nc2ccc(Oc3ccccc3)cc2)sc(C(=O)C2CC2)c1N [Compound 1-184, 4-Amino-5-cyclopropanecarbonyl-2-(4-phenoxy-phenylamino)-thiophene-3-carbonitrile]
IC50 [1]: < 10 µM
IC50 (PDE4D): < 10 µM

N#Cc1c(Nc2ccc(Oc3ccccc3)cc2)sc(C(=O)c2ccccc2)c1N [Compound 1-185, 4-Amino-5-benzoyl-2-(4-phenoxy-phenylamino)-thiophene-3-carbonitrile]
IC50 [1]: < 10 µM
IC50 (PDE4D): < 10 µM

N#Cc1c(NC2CCCC2)sc(C(N)=O)c1N [Compound 1-196, 3-Amino-4-cyano-5-cyclopentylamino-thiophene-2-carboxylic acid amide]
IC50 [1]: > 10 µM
IC50 (PDE4D): > 10 µM

N#Cc1c(Nc2ccc(Oc3ccccc3)cc2)sc(C(N)=O)c1N [Compound 1-197, 3-Amino-4-cyano-5-(4-phenoxy-phenylamino)-thiophene-2-carboxylic acid amide]
IC50 [1]: > 10 µM
IC50 (PDE4D): > 10 µM

CCOC(=O)c1sc(NC2CCCC2)c(C#N)c1N [Compound 1-199, 3-Amino-4-cyano-5-cyclopentylamino-thiophene-2-carboxylic acid ethyl ester]
IC50 [1]: < 10 µM
IC50 (PDE4D): < 10 µM

CCOC(=O)C(=O)c1sc(NC2CCCC2)c(C#N)c1N [Compound 1-201, (3-Amino-4-cyano-5-cyclopentylamino-thiophen-2-yl)-oxo-acetic acid ethyl ester]
IC50 [1]: < 10 µM
IC50 (PDE4D): < 10 µM

N#Cc1c(NC2CCCC2)sc(C(=O)c2ccsc2)c1N [Compound 1-202, 4-Amino-2-cyclopentylamino-5-(thiophene-3-carbonyl)-thiophene-3-carbonitrile]
IC50 [1]: < 10 µM
IC50 (PDE4D): < 10 µM

N#Cc1c(NC2CCCC2)sc(C(=O)c2ccc(-c3ccccc3)s2)c1N [Compound 1-203, 4-Amino-2-cyclopentylamino-5-(5-phenyl-thiophene-2-carbonyl)-thiophene-3-carbonitrile]
IC50 [1]: < 10 µM
IC50 (PDE4D): < 10 µM

N#Cc1c(NC2CCCC2)sc(C(=O)c2cc(Br)no2)c1N [Compound 1-207, 4-Amino-5-(3-bromo-isoxazole-5-carbonyl)-2-cyclopentylamino-thiophene-3-carbonitrile]
IC50 [1]: < 10 µM
IC50 (PDE4D): < 10 µM

CC(C)Nc1sc(C(=O)c2ccc(Cl)c(Cl)c2)c(N)c1C#N [Compound 1-217, 4-Amino-5-(3,4-dichloro-benzoyl)-2-isopropylamino-thiophene-3-carbonitrile]
IC50 [1]: < 10 µM
IC50 (PDE4D): < 10 µM

CN1CCN(C(=O)C(=O)c2sc(NC3CCCC3)c(C#N)c2N)CC1 [Compound 1-218, 4-Amino-2-cyclopentylamino-5-[2-(4-methyl-piperazin-1-yl)-2-oxo-acetyl]-carbonitrile]
IC50 [1]: > 10 µM
IC50 (PDE4D): > 10 µM

CCC(CC)Nc1sc(C(=O)c2ccc(Oc3ccccc3)cc2)c(N)c1C#N [Compound 1-229, 4-Amino-2-(1-ethyl-propylamino)-5-(4-phenoxy-benzoyl)-thiophene-3-carbonitrile]
IC50 [1]: < 10 µM
IC50 (PDE4D): < 10 µM

CC(C)Nc1sc(C(=O)c2ccc(Oc3ccccc3)cc2)c(N)c1C#N [Compound 1-230, 4-Amino-2-isopropylamino-5-(4-phenoxy-benzoyl)-thiophene-3-carbonitrile]
IC50 [1]: < 10 µM
IC50 (PDE4D): < 10 µM

N#Cc1c(NC2CCCC2)sc(C(=O)c2ccc(Oc3ccccc3)cc2)c1N [Compound 1-231, 4-Amino-2-cyclopentylamino-5-(4-phenoxy-benzoyl)-thiophene-3-carbonitrile]
IC50 [1]: < 10 µM
IC50 (PDE4D): < 10 µM

CCC(C)Nc1sc(C(=O)c2ccc(Oc3ccccc3)cc2)c(N)c1C#N (centres unmarked) [Compound 1-232, 4-Amino-2-sec-butylamino-5-(4-phenoxy-benzoyl)-thiophene-3-carbonitrile]
IC50 [1]: < 10 µM
IC50 (PDE4D): < 10 µM

Cc1sc(-c2ccccc2)cc1C(=O)c1sc(NC2CCCC2)c(C#N)c1N [Compound 1-234, 4-Amino-2-cyclopentylamino-5-(2-methyl-5-phenyl-thiophene-3-carbonyl)-thiophene-3-carbonitrile]
IC50 [1]: < 10 µM
IC50 (PDE4D): < 10 µM
